Measurements taken from patent publication US10000535B2, “Template-fixed peptidomimetics” (POLYPHOR LTD., priority 2007, dated 2018).
Non-standard residues stand in square brackets, D forms with d. Residues, ends and D or L forms follow the SMILES beside them. Aze = O=C(O)[C@@H]1CCN1

Key:
Test in all cases: Selectivity calcium flux assay, chemokine receptor panel
Assay type in all cases: cell-based
Conditions in all cases: at 10 μM
CCR5 = CCR5 (Homo sapiens, UniProt P51681)
Experimental: (§1) Selectivity was measured using the calcium flux assay on a panel of human chemokine receptor bearing cell lines (CCR1, CCR2, CCR3, CCR4, CCR5, CCR6, CCR7, CCR8, CCR9, CCR10, CXCR1, CXCR2, CXCR2, CXCR4, CXCR6 and CXCCR1) using the same method as above

CCR6 = molecular target: T1, CCR6 (Homo sapiens, UniProt P51684)
T1 sequence (P51684 1-374): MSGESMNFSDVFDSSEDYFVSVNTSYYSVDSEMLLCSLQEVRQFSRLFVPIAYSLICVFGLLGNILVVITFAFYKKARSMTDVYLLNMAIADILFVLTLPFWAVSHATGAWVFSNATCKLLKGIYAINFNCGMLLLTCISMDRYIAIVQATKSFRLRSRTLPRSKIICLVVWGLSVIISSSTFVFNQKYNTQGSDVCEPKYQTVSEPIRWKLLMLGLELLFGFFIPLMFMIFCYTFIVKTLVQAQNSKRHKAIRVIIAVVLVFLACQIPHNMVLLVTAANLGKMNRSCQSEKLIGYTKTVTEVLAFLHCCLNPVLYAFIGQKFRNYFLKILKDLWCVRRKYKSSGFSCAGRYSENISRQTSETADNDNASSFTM
Experimental: as §1

CCR1 = molecular target: T2, CCR1 (Homo sapiens, UniProt P32246)
T2 sequence (P32246 1-355): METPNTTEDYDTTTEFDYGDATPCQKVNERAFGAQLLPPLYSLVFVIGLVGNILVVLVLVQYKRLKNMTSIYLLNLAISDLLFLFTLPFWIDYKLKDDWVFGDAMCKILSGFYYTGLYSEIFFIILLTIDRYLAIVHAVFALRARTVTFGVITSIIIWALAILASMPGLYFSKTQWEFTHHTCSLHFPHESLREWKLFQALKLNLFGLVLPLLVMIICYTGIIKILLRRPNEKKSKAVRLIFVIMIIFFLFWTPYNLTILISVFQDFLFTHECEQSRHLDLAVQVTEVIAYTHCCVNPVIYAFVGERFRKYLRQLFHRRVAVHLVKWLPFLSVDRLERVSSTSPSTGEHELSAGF
Experimental: as §1

CXCR1 = molecular target: T3, CXCR1 (Homo sapiens, UniProt P25024)
T3 sequence (P25024 1-350): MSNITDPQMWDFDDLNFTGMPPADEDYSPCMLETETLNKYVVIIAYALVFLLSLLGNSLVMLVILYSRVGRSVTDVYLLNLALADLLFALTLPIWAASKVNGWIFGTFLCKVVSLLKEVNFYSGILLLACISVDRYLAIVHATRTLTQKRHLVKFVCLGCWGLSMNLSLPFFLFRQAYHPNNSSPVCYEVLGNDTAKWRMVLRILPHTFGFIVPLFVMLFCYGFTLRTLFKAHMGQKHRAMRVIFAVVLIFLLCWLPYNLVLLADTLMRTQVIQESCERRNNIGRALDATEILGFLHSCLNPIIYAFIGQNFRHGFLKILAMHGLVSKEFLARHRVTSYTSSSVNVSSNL
Experimental: as §1

CXCR2 = molecular target: T4, CXCR2 (Homo sapiens, UniProt P25025)
T4 sequence (P25025 1-360): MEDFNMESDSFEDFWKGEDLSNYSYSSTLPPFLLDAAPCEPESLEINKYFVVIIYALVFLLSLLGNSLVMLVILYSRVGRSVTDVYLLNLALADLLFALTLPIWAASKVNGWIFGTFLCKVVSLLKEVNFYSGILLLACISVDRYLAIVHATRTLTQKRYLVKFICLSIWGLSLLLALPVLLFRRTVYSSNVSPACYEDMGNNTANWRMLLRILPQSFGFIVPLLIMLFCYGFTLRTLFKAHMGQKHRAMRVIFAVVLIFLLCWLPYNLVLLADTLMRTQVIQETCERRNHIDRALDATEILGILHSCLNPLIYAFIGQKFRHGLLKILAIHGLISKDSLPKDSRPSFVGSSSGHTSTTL
Experimental: as §1

CCR3 = molecular target: T5, CCR3 (Homo sapiens, UniProt P51677)
T5 sequence (P51677 1-355): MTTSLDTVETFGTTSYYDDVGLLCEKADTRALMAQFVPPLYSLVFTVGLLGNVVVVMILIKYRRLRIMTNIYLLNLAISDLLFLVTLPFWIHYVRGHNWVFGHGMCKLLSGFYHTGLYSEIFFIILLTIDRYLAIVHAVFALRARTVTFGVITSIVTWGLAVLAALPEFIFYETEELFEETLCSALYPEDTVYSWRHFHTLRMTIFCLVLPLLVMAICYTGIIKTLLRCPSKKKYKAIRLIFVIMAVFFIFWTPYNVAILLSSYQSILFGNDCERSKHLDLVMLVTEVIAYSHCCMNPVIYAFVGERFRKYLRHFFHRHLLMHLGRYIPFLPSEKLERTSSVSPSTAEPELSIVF
Experimental: as §1

CCR9 = molecular target: T6, CCR9 (Homo sapiens, UniProt P51686)
T6 sequence (P51686 1-369): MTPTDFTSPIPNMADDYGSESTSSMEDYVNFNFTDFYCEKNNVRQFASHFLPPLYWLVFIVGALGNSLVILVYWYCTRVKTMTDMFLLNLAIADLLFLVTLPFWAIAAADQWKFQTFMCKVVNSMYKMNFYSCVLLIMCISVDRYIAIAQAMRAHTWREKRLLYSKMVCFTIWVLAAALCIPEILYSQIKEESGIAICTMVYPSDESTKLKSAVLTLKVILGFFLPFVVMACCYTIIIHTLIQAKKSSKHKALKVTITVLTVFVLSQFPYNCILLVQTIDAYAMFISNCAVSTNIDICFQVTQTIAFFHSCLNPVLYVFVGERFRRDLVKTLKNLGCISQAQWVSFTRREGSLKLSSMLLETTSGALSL
Experimental: as §1

CCR2 = CCR2 (Homo sapiens, UniProt P41597)
Experimental: as §1

CCR7 = molecular target: T7, CCR7 (Homo sapiens, UniProt P32248)
T7 sequence (P32248 25-378): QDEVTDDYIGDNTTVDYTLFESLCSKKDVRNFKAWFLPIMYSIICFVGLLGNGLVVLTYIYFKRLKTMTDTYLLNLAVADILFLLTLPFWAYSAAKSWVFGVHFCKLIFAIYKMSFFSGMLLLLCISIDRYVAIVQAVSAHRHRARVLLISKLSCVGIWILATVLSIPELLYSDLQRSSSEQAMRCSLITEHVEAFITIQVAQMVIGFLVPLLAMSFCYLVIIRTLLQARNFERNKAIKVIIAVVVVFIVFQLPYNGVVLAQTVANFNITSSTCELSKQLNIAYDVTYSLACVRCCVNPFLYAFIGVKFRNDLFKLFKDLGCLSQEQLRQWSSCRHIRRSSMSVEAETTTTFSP
Experimental: as §1

CCR5, sequence (P51681 whole entry): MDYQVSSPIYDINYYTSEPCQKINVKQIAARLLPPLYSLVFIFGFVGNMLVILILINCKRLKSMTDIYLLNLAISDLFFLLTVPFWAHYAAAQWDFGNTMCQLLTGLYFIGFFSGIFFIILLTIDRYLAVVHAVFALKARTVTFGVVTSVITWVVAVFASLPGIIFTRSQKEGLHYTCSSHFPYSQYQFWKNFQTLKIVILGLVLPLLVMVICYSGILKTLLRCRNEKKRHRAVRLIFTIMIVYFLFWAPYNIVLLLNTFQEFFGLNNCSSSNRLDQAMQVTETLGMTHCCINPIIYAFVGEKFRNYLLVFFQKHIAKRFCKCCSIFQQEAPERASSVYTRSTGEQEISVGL
CCR2, sequence (P41597 whole entry): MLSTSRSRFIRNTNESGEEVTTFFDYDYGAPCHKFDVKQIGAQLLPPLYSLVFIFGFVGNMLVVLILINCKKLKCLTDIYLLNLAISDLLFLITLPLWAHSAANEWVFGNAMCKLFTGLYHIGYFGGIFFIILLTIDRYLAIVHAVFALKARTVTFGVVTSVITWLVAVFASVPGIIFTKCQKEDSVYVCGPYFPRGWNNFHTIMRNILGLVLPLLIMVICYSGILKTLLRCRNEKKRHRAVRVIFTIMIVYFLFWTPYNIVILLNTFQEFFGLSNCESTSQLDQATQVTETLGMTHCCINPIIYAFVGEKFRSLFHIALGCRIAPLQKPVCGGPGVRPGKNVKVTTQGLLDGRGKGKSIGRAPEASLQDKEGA

C[C@@H]1NC(=O)[C@H](CCCNC(=N)N)NC(=O)[C@H](Cc2c[nH]c3ccccc23)NC(=O)[C@H](Cc2ccc(O)cc2)NC(=O)[C@@H]2CCN2C(=O)[C@H]2CCCN2C1=O [Example 16] (cyclo(YWRA[dP][Aze]))
highly selective: selectivity against CCR5 (CCR5) | selectivity against CCR6 (CCR6) | selectivity against CCR1 (CCR1) | selectivity against CXCR1 (CXCR1) | selectivity against CXCR2 (CXCR2) | selectivity against CCR3 (CCR3) | selectivity against CCR9 (CCR9) | selectivity against CCR2 (CCR2) | selectivity against CCR7 (CCR7)

N=C(N)NCCC[C@@H]1NC(=O)[C@H](Cc2c[nH]c3ccccc23)NC(=O)[C@H](Cc2ccc(O)cc2)NC(=O)[C@@H]2CCN2C(=O)[C@H]2CCCN2C(=O)CNC1=O [Example 15] (cyclo(YWRG[dP][Aze]))
highly selective: selectivity against CCR5 (CCR5) | selectivity against CCR6 (CCR6) | selectivity against CCR1 (CCR1) | selectivity against CXCR1 (CXCR1) | selectivity against CXCR2 (CXCR2) | selectivity against CCR3 (CCR3) | selectivity against CCR9 (CCR9) | selectivity against CCR2 (CCR2) | selectivity against CCR7 (CCR7)
